# Data as given in publication PMC12040969, “Design, synthesis, in silico studies, and apoptotic antiproliferative activity of novel thiazole-2-acetamide derivatives as tubulin polymerization inhibitors” (Frontiers in Chemistry, 2025).
# Assays:
# breast - MCF-7 = assay: Antiproliferative assay (MTT) MCF-7; details: for IC50: read-out: Antiproliferative activity IC50 ± SEM (µM) MCF-7, MCF-7, MTT
# [1] = Cell viability assay (MTT), normal cells; type: cell-based; details: human, MCF-10A normal mammary gland epithelial cells, four-day incubation
# Procedure: The impact of novel compounds 10a-o and 13a-e on cell viability was examined using the MCF-10A (human mammary gland epithelial) normal cell line. The MTT test was employed to assess the cell viability of the novel compounds after a four-day incubation with MCF-10A cells ([El-Sherief et al., 2019]; [Ramadan et al., 2020]).
# The effects of compounds 10a-o and 13a-e on cell viability were assessed using the human mammary gland epithelial normal cell line (MCF-10A). The MTT assay assessed the cell viability of compounds 10a-o and 13a-e following a four-day incubation with MCF-10A cells ([El-Sherief et al., 2019]; [Ramadan et al., 2020]). Check Supplementary Appendix A for additional information.
# 4.2. Biological evaluation
# 4.2.1 Cell Viability assay (MTT assay)
# MTT assay was performed to investigate the effect of the synthesized compounds on mammary epithelial cells (MCF-10A). The cells were propagated in medium consisting of Ham's F-12 medium/ Dulbecco's modified Eagle's medium (DMEM) (1:1) supplemented with 10% foetal calf serum, 2 mM glutamine, insulin (10 μg/mL), hydrocortisone (500 ng/mL) and epidermal growth factor (20 ng/mL). Trypsin ethylenediamine tetra acetic acid (EDTA) was used to passage the cells after every 2-3 days. 96-well flat-bottomed cell culture plates were used to seed the cells at a density of 10^4 cells mL-1. The medium was aspirated from all the wells of culture plates after 24 h followed by the addition of synthesized compounds (in 200 μL medium to yield a final concentration of 0.1% (v/v) dimethyl sulfoxide) into individual wells of the plates.
# Four wells were designated to a single compound. The plates were allowed to incubate at 37°C for 96 h. Afterwards, the medium was aspirated and 3-[4,5-dimethylthiazol-2-yl]-2,5-diphenyltetrazolium bromide (MTT) (0.4 mg/mL) in medium was added to each well and subsequently incubated for 3 h. The medium was aspirated and 150 μL dimethyl sulfoxide (DMSO) was added to each well. The plates were vortexed followed by the measurement of absorbance at 540 nm on a microplate reader. The results were presented as inhibition (%) of proliferation in contrast to controls comprising 0.1%
# [2] = system: four human cancer cell lines (HCT-116, PC-3, MCF-7, MDAMB-231); assay: Antiproliferative assay, mean of four cell lines (GI50); details: for Reduced potency compared to doxorubicin (GI50) / Reduced potency compared to sorafenib (GI50): GI50 ratio; for IC50: Homo sapiens, read-out: GI50 (average IC50)
# pancreatic - MDAMB-231 = assay: Antiproliferative assay (MTT) MDAMB-231; details: read-out: Antiproliferative activity IC50 ± SEM (µM) MDAMB-231; MDAMB-231, MTT
# - MDAMB-231 = assay: Antiproliferative assay (MTT) MDAMB-231
# tubulin = assay: Tubulin polymerization inhibition assay (Cytoskeleton kit);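 for all read-outs here: Cell-free tubulin polymerization read by fluorescent reporter enhancement over a 30 min reaction, with the compound-free kit control taken as 100% activity and inhibition relative to it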; details: for Tub %inh / Tub. enzyme inhibition assay %inhibition: 30 min; for Tub %inh: YB-EGY run; for Tub K.Activity: EC = 120, YB-EGY run; for IC50: read-out: Tubulin inhibition IC50 ± SEM, triplicate for each tested concentration; for Tub. enzyme inhibition assay %inhibition: codes 522-537 run; for Tub. enzyme inhibition assay K. Activity: control = 120, codes 522-537 run
# colon - HCT-116 = assay: Antiproliferative assay (MTT) HCT-116; details: for IC50: read-out: Antiproliferative activity IC50 ± SEM (µM) HCT-116, HCT-116, MTT
# prostatic - PC-3 = assay: Antiproliferative assay (MTT) PC-3; details: for IC50: read-out: Antiproliferative activity IC50 ± SEM (µM) PC-3, PC-3, MTT
smiles,measurement,setting,value
"Cc1nc(SCC(=O)Nc2nc(-c3ccc(Cl)cc3)cs2)sc1C(=O)/C=C/c1ccc(F)cc1 [Compound 10h, (E)-N-(4-(4-chlorophenyl)thiazol-2-yl)-2-((5-(3-(4-fluorophenyl)acryloyl)-4-methylthiazol-2-yl)thio)acetamide]",Average of Relative viability of cells (%),"breast - MCF-7; MCF-7, 1.56 µM",100%
same,Average of Relative viability of cells (%),"breast - MCF-7; MCF-7, 3.125 µM",94.8%
same,Average of Relative viability of cells (%),"breast - MCF-7; MCF-7, 6.25 µM",76.5%
same,Average of Relative viability of cells (%),"breast - MCF-7; MCF-7, 12.5 µM",53.9%
same,Average of Relative viability of cells (%),"breast - MCF-7; MCF-7, 25 µM",50.2%
same,Average of Relative viability of cells (%),"breast - MCF-7; MCF-7, 50 µM",37.1%
same,Average of Relative viability of cells (%),"breast - MCF-7; MCF-7, 100 µM",23.6%
same,IC50,breast - MCF-7,24 ± 1.7 µM
same,"viability at 96 h, 50 µM",[1],85%
same,Reduced potency compared to doxorubicin (GI50),[2],at least 2.5 fold
same,Reduced potency compared to sorafenib (GI50),[2],≥ 1.5 fold
same,IC50,[2],32 µM
same,IC50,pancreatic - MDAMB-231,15 ± 1.3 µM
same,Average of Relative viability of cells (%),"- MDAMB-231; MDAMB-231, 1.56 µM",100%
same,Average of Relative viability of cells (%),"- MDAMB-231; MDAMB-231, 3.125 µM",85.7%
same,Average of Relative viability of cells (%),"- MDAMB-231; MDAMB-231, 6.25 µM",68.5%
same,Average of Relative viability of cells (%),"- MDAMB-231; MDAMB-231, 12.5 µM",47.4%
same,Average of Relative viability of cells (%),"- MDAMB-231; MDAMB-231, 25 µM",37.1%
same,Average of Relative viability of cells (%),"- MDAMB-231; MDAMB-231, 50 µM",26.7%
same,Average of Relative viability of cells (%),"- MDAMB-231; MDAMB-231, 100 µM",21.6%
same,Tub %inh,tubulin; conc 0.1 (unit not given),9.85%
same,Tub K.Activity,tubulin; conc 0.1 (unit not given),108.18
same,Tub %inh,tubulin; conc 1 (unit not given),26.6%
same,Tub K.Activity,tubulin; conc 1 (unit not given),88.132
same,Tub %inh,tubulin; conc 10 (unit not given),44.8%
same,Tub K.Activity,tubulin; conc 10 (unit not given),66.269
same,Tub %inh,tubulin; conc 50 (unit not given),65.5%
same,Tub K.Activity,tubulin; conc 50 (unit not given),41.405
same,Tub %inh,tubulin; conc 100 (unit not given),84.5%
same,Tub K.Activity,tubulin; conc 100 (unit not given),18.607
same,IC50,tubulin,7.95 ± 0.24 µM
same,Average of Relative viability of cells (%),"colon - HCT-116; HCT-116, 1.56 µM",100%
same,Average of Relative viability of cells (%),"colon - HCT-116; HCT-116, 3.125 µM",97.6%
same,Average of Relative viability of cells (%),"colon - HCT-116; HCT-116, 6.25 µM",79.5%
same,Average of Relative viability of cells (%),"colon - HCT-116; HCT-116, 12.5 µM",69.3%
same,Average of Relative viability of cells (%),"colon - HCT-116; HCT-116, 25 µM",52.8%
same,Average of Relative viability of cells (%),"colon - HCT-116; HCT-116, 50 µM",39.4%
same,Average of Relative viability of cells (%),"colon - HCT-116; HCT-116, 100 µM",20.2%
same,IC50,colon - HCT-116,29 ± 1.9 µM
same,Average of Relative viability of cells (%),"prostatic - PC-3; PC-3, 1.56 µM",100%
same,Average of Relative viability of cells (%),"prostatic - PC-3; PC-3, 3.125 µM",100%
same,Average of Relative viability of cells (%),"prostatic - PC-3; PC-3, 6.25 µM",100%
same,Average of Relative viability of cells (%),"prostatic - PC-3; PC-3, 12.5 µM",93.5%
same,Average of Relative viability of cells (%),"prostatic - PC-3; PC-3, 25 µM",72.4%
same,Average of Relative viability of cells (%),"prostatic - PC-3; PC-3, 50 µM",55.8%
same,Average of Relative viability of cells (%),"prostatic - PC-3; PC-3, 100 µM",36.5%
same,IC50,prostatic - PC-3,61 ± 3.5 µM
"Cc1ccc(-c2csc(NC(=O)CSc3nc(C)c(C(=O)/C=C/c4ccc(F)cc4)s3)n2)cc1 [Compound 10m, (E)-2-((5-(3-(4-fluorophenyl)acryloyl)-4-methylthiazol-2-yl)thio)-N-(4-(p-tolyl)thiazol-2-yl)acetamide]",Average of Relative viability of cells (%),"breast - MCF-7; MCF-7, 1.56 µM",100%
same,Average of Relative viability of cells (%),"breast - MCF-7; MCF-7, 3.125 µM",91.6%
same,Average of Relative viability of cells (%),"breast - MCF-7; MCF-7, 6.25 µM",72.7%
same,Average of Relative viability of cells (%),"breast - MCF-7; MCF-7, 12.5 µM",53.5%
same,Average of Relative viability of cells (%),"breast - MCF-7; MCF-7, 25 µM",37.2%
same,Average of Relative viability of cells (%),"breast - MCF-7; MCF-7, 50 µM",28.4%
same,Average of Relative viability of cells (%),"breast - MCF-7; MCF-7, 100 µM",22.3%
same,IC50,breast - MCF-7,18 ± 1.4 µM
same,"viability at 96 h, 50 µM",[1],87%
same,Reduced potency compared to doxorubicin (GI50),[2],at least 2.5 fold
same,Reduced potency compared to sorafenib (GI50),[2],≥ 1.5 fold
same,IC50,[2],29 µM
same,IC50,pancreatic - MDAMB-231,20 ± 1.6 µM
same,Average of Relative viability of cells (%),"- MDAMB-231; MDAMB-231, 1.56 µM",100%
same,Average of Relative viability of cells (%),"- MDAMB-231; MDAMB-231, 3.125 µM",87.1%
same,Average of Relative viability of cells (%),"- MDAMB-231; MDAMB-231, 6.25 µM",68.5%
same,Average of Relative viability of cells (%),"- MDAMB-231; MDAMB-231, 12.5 µM",55.2%
same,Average of Relative viability of cells (%),"- MDAMB-231; MDAMB-231, 25 µM",43.7%
same,Average of Relative viability of cells (%),"- MDAMB-231; MDAMB-231, 50 µM",32.3%
same,Average of Relative viability of cells (%),"- MDAMB-231; MDAMB-231, 100 µM",24.8%
same,Tub. enzyme inhibition assay %inhibition,tubulin; conc 0.01 (unit not given),5.97%
same,Tub. enzyme inhibition assay K. Activity,tubulin; conc 0.01 (unit not given),112.84
same,Tub. enzyme inhibition assay %inhibition,tubulin; conc 0.1 (unit not given),16.8%
same,Tub. enzyme inhibition assay K. Activity,tubulin; conc 0.1 (unit not given),99.836
same,Tub. enzyme inhibition assay %inhibition,tubulin; conc 1 (unit not given),30%
same,Tub. enzyme inhibition assay K. Activity,tubulin; conc 1 (unit not given),84.045
same,Tub. enzyme inhibition assay %inhibition,tubulin; conc 10 (unit not given),58%
same,Tub. enzyme inhibition assay K. Activity,tubulin; conc 10 (unit not given),50.371
same,Tub. enzyme inhibition assay %inhibition,tubulin; conc 100 (unit not given),81.2%
same,Tub. enzyme inhibition assay K. Activity,tubulin; conc 100 (unit not given),22.611
same,IC50,tubulin,7.92 ± 0.29 µM
same,Tub. (IC50) IC50±SD,"tubulin; supplement raw data, lab codes",4.039 ± 0.15 µg/mL
same,Average of Relative viability of cells (%),"colon - HCT-116; HCT-116, 1.56 µM",100%
same,Average of Relative viability of cells (%),"colon - HCT-116; HCT-116, 3.125 µM",99.8%
same,Average of Relative viability of cells (%),"colon - HCT-116; HCT-116, 6.25 µM",87.4%
same,Average of Relative viability of cells (%),"colon - HCT-116; HCT-116, 12.5 µM",67.3%
same,Average of Relative viability of cells (%),"colon - HCT-116; HCT-116, 25 µM",54.1%
same,Average of Relative viability of cells (%),"colon - HCT-116; HCT-116, 50 µM",43.7%
same,Average of Relative viability of cells (%),"colon - HCT-116; HCT-116, 100 µM",28.4%
same,IC50,colon - HCT-116,35 ± 2.2 µM
same,Average of Relative viability of cells (%),"prostatic - PC-3; PC-3, 1.56 µM",100%
same,Average of Relative viability of cells (%),"prostatic - PC-3; PC-3, 3.125 µM",98.5%
same,Average of Relative viability of cells (%),"prostatic - PC-3; PC-3, 6.25 µM",84.1%
same,Average of Relative viability of cells (%),"prostatic - PC-3; PC-3, 12.5 µM",70.2%
same,Average of Relative viability of cells (%),"prostatic - PC-3; PC-3, 25 µM",57.4%
same,Average of Relative viability of cells (%),"prostatic - PC-3; PC-3, 50 µM",46.7%
same,Average of Relative viability of cells (%),"prostatic - PC-3; PC-3, 100 µM",36.8%
same,IC50,prostatic - PC-3,43 ± 2.5 µM
